The results in this text go back to patent US9572862B2, “Methods for promoting lipolysis and oxidation in liver and adipose tissue using catestatin” (The Regents of the University of California, priority 2012, dated 2017).

For one assay, the system named is phospholipase C (PLC). To be noted: 3T3-L1 adipocytes. How it is done:
FIG. 5. Regulation of adrenergic signaling by CST as measured by cAMP production, phospholipase C activity, and lipolytic glycerol release. (A) Effects of CST (100 nM, 10 min) on cAMP production in PC-12 and 3T3-L1 cells pretreated with saline or isoproterenol (ISO) (10 μM) for 10 min. (B) Effects of CST on phospholipase C activity in 3T3-L1 adipocytes pretreated with phenylephrine or epinephrine (10 μM for 10 min). (C) Effects of CST on glycerol release from adipocytes pretreated with ISO, phenylephrine (PEP), and phentolamine (PTA) (10 μM for 10 min).

In assay [1] the test system is AMPK and Stat3 phosphorylation. Put plainly: AMPK and Stat3 signaling in adipose tissue explants from Chga-KO mice. Format: cell-based. How it is done:
FIG. 6. Regulation of AMPK and Stat3 signaling by CST in adipose tissue explants. Explants from Chga-KO mice were treated with saline or CST (100 nM for 30 min) and immunoblotted for pAMPK and AMPK (A). Adipose explants from WT and Chga-KO mice were immunoblotted for pAMPK and AMPK after treatment with saline or leptin (1 μM) for 30 min (B). pAMPK and AMPK (C) and pStat3 and Stat3 (D) signaling in adipose explants from WT and Chga-KO mice after treatment for 30 min with saline, CST (100 nM), leptin (1 μM) or leptin plus CST.
(§1) Adipose tissue explants were prepared as described (42). Epididymal fat pads from 12 hr fasted WT, Chga-KO, DIO and Ob/Ob mice with or without CST treatment were collected in Kreb-Ringer-phosphate (KRP) buffer containing 10 mM Hepes and 0.5% BSA. Tissues were minced to 1-2 mm size and treated with 100 nM CST, 1 μM leptin, or saline for 30 min (for signaling analysis) or 3 hr (for lipolysis and β-oxidation assays). Explants were also treated acutely with CST, leptin, a combination, or saline. At the end, incubation media were saved for analysis of glycerol and fatty acid release. Explants were washed prior to homogenization for immunoblotting and analysis of fatty acid oxidation.
Adipose tissue explants after treatments ex vivo and tissues from mice treated in vivo were homogenized in a buffer containing phosphatase and protease inhibitors (20 mM Tris/HCl (pH 7.5), 250 mM sucrose, 2 mM EDTA, 2 mM EGTA, 2 mM Na3VO4, 10 mM NaF, 2 mM Na4P2O7, 1 mM phenylmethylsulfonyl fluoride, 20 μg/ml leupeptin, 10 μg/ml aprotinin, and 1 μM LR-microcystin) as described (38,44). Homogenates were subjected to SDS-PAGE and immunoblotted. Primary antibodies for AMPK and Stat3 were from Cell Signaling Technology (Beverly, Mass.). The chemiluminescence kit was from Pierce (Rockford, Ill.).

Assay [2] concerns adipose tissue explants from Ob/Ob mice. Put plainly: Lipolysis and fatty acid oxidation in adipose explants of Ob/Ob mice. The class given is cell-based. The method, then: FIG. 8. Lipolysis and fatty acid oxidation in the adipose tissue explants of DIO and Ob/Ob mice after treatment with saline or CST for 16 days. Explants were incubated with saline or leptin (1 μM) for 3 hr and the concentrations of glycerol (A&C) and NEFA (B&D) released into the media from DIO (A&B) and Ob/Ob (C&D) explants were determined as a measure of lipolysis. Homogenates of the explants from DIO (E) and Ob/Ob […] were used to determine their capacity for oxidation of U-^14C-palmitate in response to the treatment with saline, CST, leptin and CST+leptin. The ^14CO2 released was captured and counted as the measure of fatty acid oxidation.
as §1
Oxidation of radiolabeled palmitate in the homogenates of adipose tissue explants as described previously (45). For oxidation studies of cultured cells, HepG2 (hepatocytes) and 3T3-L1 preadipocytes were obtained from ATCC and cultured following supplier's protocol. Confluent 3T3-L1 cultures were differentiated into adipocytes by treating with a cocktail of dexamethasone (100 nM), IBMX ([…]) and insulin (100 nM) for 10 days. Media were then switched to serum-free DMEM with 1% BSA. Hepatocytes were assayed for lipogenesis and fat oxidation in response to CST treatment. Serum-free cultures were treated with CST (100 nM) for 24 hr followed by a 2 hr incubation with U^14C-palmitate (0.5 μCi/ml). Fatty acid oxidation in cells was determined by modifying a published method (46). Specifically, the culture media in 24-well plates were acidified with 10% HClO4 after incubation with the labeled fatty acid and immediately covered with a thick filter paper sheet (cut to size) soaked in 2 N NaOH and placed underneath the plastic lid. The whole plate was sealed with parafilm. After further incubation for 2 hr, the filter paper sheet was marked as circles around the rim of the wells and then the circles were excised. The filter discs were counted to determine the amount of ^14CO2 absorbed in the papers. Cells in the culture wells were lysed in 1 N NaOH and protein content was assayed using Folin's reagent (BioRad, Hercules, Calif.).

The test system of the next assay is CST-KO mice. Put plainly: CST supplementation in NCD-fed CST-KO mice. Format: in vivo. How it is done:
FIG. 13. Changes in biochemical and physiological parameters in NCD-fed CST-KO mice after CST (5 μg/g BW) supplementation. […] Figures in parentheses indicate number of animals.

The test system of the next assay is 3T3-L1 adipocytes. Put plainly: Leptin in adipocyte culture media after CST. The class given is cell-based. To be noted: cultured 3T3-L1 adipocytes. The method, then: FIG. 1. Plasma parameters of wild-type (WT) and Chga-KO mice treated with saline or CST. (A) Plasma CST from saline or CST (5 μg/g BW, i.p./day) treated WT mice (28 week old) on normal chow (NCD) and high fat diet (60% fat for 16 weeks) as well as from Chga-KO mice (28 week old) on NCD. Body weights (B) and epididymal fat pad size normalized to body weight (C) in 28 week old WT and Chga-KO mice treated with saline or CST for 12 days. Plasma triglyceride (TG) (D), glycerol (E), non-esterified fatty acids (NEFA) (F), and leptin (G) in 28 week old WT and Chga-KO mice after treatment with saline or CST for 12 days. (H) Leptin in adipocyte culture media after treatment with saline or CST.
Mice were fasted for 12 hr prior to blood draw. Triglycerides (TG) and non-esterified fatty acids (NEFA) were assayed using kits from Wako Diagnostics (Richmond, Va.). Glycerol was assayed using a kit from Sigma (St Louis, Mo.). Media from the explant cultures and mouse serum were analysed for glycerol and NEFA as a measure of lipolysis. […]
Oxidation of radiolabeled palmitate in the homogenates of adipose tissue explants as described previously (45). […] Fatty acid oxidation in cells was determined by modifying a published method (46). […] The filter discs were counted to determine the amount of ^14CO2 absorbed in the papers. […]

The mark [3] stands for this setting: CST-KO mice, CST 5 μg/g BW for 8 days.

“Also recorded” adds a separate entry of the source. No end group written: not given here.

SSMKLSFRARAYGFRGPGPQL [CST]: the “PLC activity, substance by itself” value in the assay on phospholipase C (PLC) is listed as “mildly stimulates PLC”. Also, in the assay on phospholipase C (PLC) (epinephrine 10 μM 10 min), the “PLC activation by epinephrine” value was “attenuated”. Moreover, in the assay on phospholipase C (PLC) (phenylephrine 10 μM 10 min), the “PLC activation by phenylephrine” value is listed as “attenuated”. The “Stat3 phosphorylation, CST alone” value in assay [1] is “lack of CST stimulation of Stat3 phosphorylation”. In addition, in assay [1] (CST plus leptin), the “leptin's ability to stimulate the phosphorylation of AMPK” value was “restored” and the “leptin's ability to stimulate the phosphorylation of Stat3” value is listed as “restored”. For the same sequence, the “AMPK phosphorylation, CST alone” value in assay [1] (acute CST 100 nM 30 min) is “stimulated AMPK phosphorylation; also recorded: significantly stimulated pAMPK signaling”. In addition, in assay [2], the palmitate oxidation entry was “not CST alone”. In addition, in assay [2] (CST in vivo 16 days, leptin 1 μM ex vivo 3 hr), the “lipolysis (glycerol and NEFA release)” value is listed as “did not influence lipolysis”. For the same sequence, in the assay on CST-KO mice (setting [3]), the “plasma NEFA” value is “reduced; also recorded: decreased”, the “plasma TG” value is “reduced; also recorded: decreased”, the plasma catecholamine result was “reduced; also recorded: normalized high plasma catecholamines” and the plasma glycerol entry was “increase; also recorded: increased plasma glycerol”. In the assay with CST-KO mice (setting [3]), the plasma insulin result is “reduced; also recorded: normalized the plasma insulin concentration to the WT level; also recorded: normalized hyperinsulinemia” and the plasma leptin result is given as “reduced; also recorded: normalized hyperleptinemia”. In addition, the hypertensive phenotype entry in the assay on CST-KO mice (CST-KO mice, CST supplementation) is on record as “normalized”. In addition, the “glucose tolerance by IP-GTT” value with CST-KO mice (NCD-fed CST-KO mice, CST 5 μg/g BW for 8 days) is “restored glucose tolerance; also recorded: improved glucose tolerance; also recorded: improved insulin resistance”. The “insulin sensitivity / glucose tolerance by IP-ITT” value in the assay with CST-KO mice (NCD-fed CST-KO mice, CST supplementation) was “improved insulin sensitivity; also recorded: restored glucose tolerance; also recorded: improved insulin resistance”. Further, the “leptin production / release” value in the assay on 3T3-L1 adipocytes is “inhibited leptin production; also recorded: inhibited leptin release”.
